From publication PMC10967822, “Antimicrobial Indole-3-Carboxamido-Polyamine Conjugates Target Bacterial Membranes and Are Antibiotic Potentiators” (Biomolecules, 2024) come the findings set out here.

Values after ≈ are worked out from the molar mass of the structure shown.

The test system of one series is MRSA ATCC 43300. Nature of the series: MIC, broth microdilution (CO-ADD), MRSA. Conditions: Staphylococcus aureus; MRSA ATCC 43300; top dose 32 µg/mL; read-out: MIC MRSA. The class given is cell-based, methicillin-resistant S. aureus.
On to `O=C(NCCCNCCCCCCCNCCCNC(=O)c1c[nH]c2ccc(Br)cc12)c1c[nH]c2ccc(Br)cc12` [Compound 13c], for which the MIC is at most 0.27 µM.
On to `O=C(NCCCNCCCCCCCCNCCCNC(=O)c1c[nH]c2ccc(Br)cc12)c1c[nH]c2ccc(Br)cc12` [Compound 13d], for which the MIC was at most 0.27 µM.

In another series the test system is K. pneumoniae ATCC 700603. Description: MIC, broth microdilution (CO-ADD), K. pneumoniae. Conditions: top dose 32 µg/mL.
Take `O=C(NCCCNCCCCCCCNCCCNC(=O)c1c[nH]c2ccc(Br)cc12)c1c[nH]c2ccc(Br)cc12` [Compound 13c]: the “MIC Kp” value is on record as above 35 µM.
On the same count and under the same terms, as for `O=C(NCCCNCCCCCCCCNCCCNC(=O)c1c[nH]c2ccc(Br)cc12)c1c[nH]c2ccc(Br)cc12` [Compound 13d], the figure is above 34 µM.

Tested on in a further series: not listed separately
Nature of the series: Cytotoxicity assay (resazurin). The class given is cell-based. Conditions: human, HEK293 cells, mean n = 2.
Consider `O=C(NCCCNCCCCCCCNCCCNC(=O)c1c[nH]c2ccc(Br)cc12)c1c[nH]c2ccc(Br)cc12` [Compound 13c], for which the IC50 at 20 h was above 35 µM.
Still for that read-out and setting: as for `O=C(NCCCNCCCCCCCCNCCCNC(=O)c1c[nH]c2ccc(Br)cc12)c1c[nH]c2ccc(Br)cc12` [Compound 13d], the figure is above 34 µM.

In another series the test system is human red blood cells. Nature of the series: Hemolytic assay. The note with it: 10% hemolytic activity, mean n = 2. The class given is cell-based. On the procedure:
Human whole blood was washed three times with three volumes of 0.9% NaCl and then resuspended in the same solution to a concentration of 0.5 × 10^8 cells/mL, as determined by the manual cell count in a Neubauer hemocytometer. The washed cells were then added to the 384-well compound-containing plates for a final volume of 50 μL. After a 10 min shake on a plate shaker, the plates were then incubated for 1 h at 37 °C. After incubation, the plates were centrifuged at 1000× g for 10 min to pellet cells and debris; 25 μL of the supernatant was then transferred to a polystyrene 384-well assay plate. Hemolysis was determined by measuring the supernatant absorbance at […] (OD405). The absorbance was measured using a Tecan M1000 Pro monochromator plate reader. HC10 and HC50 (concentrations at 10% and 50% hemolysis, respectively) were calculated by a curve fitting the inhibition values vs. log (concentration) using a sigmoidal dose–response function with variable fitting values for the top, bottom, and slope.
With `O=C(NCCCNCCCCCCCNCCCNC(=O)c1c[nH]c2ccc(Br)cc12)c1c[nH]c2ccc(Br)cc12` [Compound 13c], the “Hemolysis HC10” value is recorded as above 35 µM.
For `O=C(NCCCNCCCCCCCCNCCCNC(=O)c1c[nH]c2ccc(Br)cc12)c1c[nH]c2ccc(Br)cc12` [Compound 13d], the “Hemolysis HC10” value is above 34 µM.

The next series relates to E. coli ATCC 25922. Nature of the series: MIC, broth dilution, E. coli. The class given is cell-based, Escherichia coli. The note with it: Escherichia coli, ATCC25922; E. coli ATCC 25922, 18 h.
Take `O=C(NCCCNCCCCCCCNCCCNC(=O)c1c[nH]c2ccc(Br)cc12)c1c[nH]c2ccc(Br)cc12` [Compound 13c]: it took 110 µM (≈ 75.7 µg/mL) to inhibit growth (MIC).
Same read-out and setting: as for `O=C(NCCCNCCCCCCCCNCCCNC(=O)c1c[nH]c2ccc(Br)cc12)c1c[nH]c2ccc(Br)cc12` [Compound 13d], the figure is 53.7 µM (≈ 37.7 µg/mL).

Another series concerns E. coli ATCC 25922. Nature of the series: Erythromycin potentiation against E. coli. The format is cell-based, Escherichia coli. Conditions: erythromycin at 2 µg/mL (2.7 µM), E. coli. From the text:
(§1) These measurements were independently repeated in triplicate.
For the compound `O=C(NCCCNCCCCCCCNCCCNC(=O)c1c[nH]c2ccc(Br)cc12)c1c[nH]c2ccc(Br)cc12` [Compound 13c], the “Erythro/Ec fold-change (intrinsic MIC / combination MIC)” value came to 16 fold.
On the same count and under the same terms, as for `O=C(NCCCNCCCCCCCCNCCCNC(=O)c1c[nH]c2ccc(Br)cc12)c1c[nH]c2ccc(Br)cc12` [Compound 13d], the figure is 8 fold.

Still in this series, the particulars now being: erythromycin at 2 µg/mL (2.7 µM), mean n = 3.
In the case of `O=C(NCCCNCCCCCCCNCCCNC(=O)c1c[nH]c2ccc(Br)cc12)c1c[nH]c2ccc(Br)cc12` [Compound 13c], the “Erythro/Ec: concentration required to restore erythromycin activity (combination MIC)” value is on record as 6.82 µM.
The same measure, in the same setting: as for `O=C(NCCCNCCCCCCCCNCCCNC(=O)c1c[nH]c2ccc(Br)cc12)c1c[nH]c2ccc(Br)cc12` [Compound 13d], the figure is 6.72 µM.

The test system of the next series is C. albicans ATCC 90028. Description: Antifungal MIC (CO-ADD), C. albicans. The note with it: Candida albicans, ATCC90028, top dose 32 µg/mL. The class given is cell-based. The method, then:
(§2) For the antifungal assay, fungi strains were cultured for 3 days on YPD agar at 30 °C. A yeast suspension of 1 × 10^6 to 5 × 10^6 CFU/mL was prepared from five colonies. These stock suspensions were diluted with a yeast nitrogen base (YNB) (Becton Dickinson, 233520, New South Wales, Australia) broth to a final concentration of 2.5 × 10^3 CFU/mL. […] The plates were covered and incubated at 35 °C for 36 h without shaking. C. albicans MICs were determined by measuring the absorbance at OD530. For C. neoformans, resazurin was added at a 0.006% final concentration to each well and incubated for a further 3 h before the MICs were determined by measuring the absorbance at OD570–600. […] Fluconazole was used as a positive fungal inhibitor standard for C. albicans and C. neoformans. […] The quality control (QC) of the assays was determined by the antimicrobial controls and the Z′-factor (using positive and negative controls).
`O=C(NCCCNCCCCCCCNCCCNC(=O)c1c[nH]c2ccc(Br)cc12)c1c[nH]c2ccc(Br)cc12` [Compound 13c]: inhibition of growth (MIC) required 35 µM (≈ 24.1 µg/mL).
In turn, `O=C(NCCCNCCCCCCCCNCCCNC(=O)c1c[nH]c2ccc(Br)cc12)c1c[nH]c2ccc(Br)cc12` [Compound 13d] displayed an MIC of at most 0.27 µM.

Another series deals with C. neoformans ATCC 208821. Nature of the series: Antifungal MIC (CO-ADD), C. neoformans. The note with it: Cryptococcus neoformans, ATCC208821, top dose 32 µg/mL. The format is cell-based. The method, then:
as §2
Compound `O=C(NCCCNCCCCCCCNCCCNC(=O)c1c[nH]c2ccc(Br)cc12)c1c[nH]c2ccc(Br)cc12` [Compound 13c] gave an MIC of at most 0.27 µM.
`O=C(NCCCNCCCCCCCCNCCCNC(=O)c1c[nH]c2ccc(Br)cc12)c1c[nH]c2ccc(Br)cc12` [Compound 13d]: the MIC is at most 0.27 µM.

For the next series, the system named is S. aureus ATCC 25923. Nature of the series: MIC, broth dilution, S. aureus. The format is cell-based, Staphylococcus aureus. The note with it: Staphylococcus aureus, ATCC25923; S. aureus ATCC 25923, 18 h; read-out: MIC Sa.
Consider `O=C(NCCCNCCCCCCCNCCCNC(=O)c1c[nH]c2ccc(Br)cc12)c1c[nH]c2ccc(Br)cc12` [Compound 13c], for which the MIC amounted to 13.6 µM (≈ 9.36 µg/mL).
Consider `O=C(NCCCNCCCCCCCCNCCCNC(=O)c1c[nH]c2ccc(Br)cc12)c1c[nH]c2ccc(Br)cc12` [Compound 13d], for which the MIC amounted to 3.36 µM (≈ 2.36 µg/mL).

In the next series the test system is P. aeruginosa ATCC 27853. Description: Doxycycline potentiation against P. aeruginosa. The format is cell-based, Pseudomonas aeruginosa. The note with it: doxycycline at 2 µg/mL (4.5 µM), P. aeruginosa ATCC 27853.
Description: as §1
On to `O=C(NCCCNCCCCCCCNCCCNC(=O)c1c[nH]c2ccc(Br)cc12)c1c[nH]c2ccc(Br)cc12` [Compound 13c], for which the “Dox/Pa fold-change (intrinsic MIC / combination MIC)” value worked out at 16 fold.
Take `O=C(NCCCNCCCCCCCCNCCCNC(=O)c1c[nH]c2ccc(Br)cc12)c1c[nH]c2ccc(Br)cc12` [Compound 13d]: the “Dox/Pa fold-change (intrinsic MIC / combination MIC)” value is recorded as 8 fold.

The series is the same for the next values; noted with them: doxycycline at 2 µg/mL (4.5 µM), P. aeruginosa ATCC 27853, mean n = 3.
Consider `O=C(NCCCNCCCCCCCNCCCNC(=O)c1c[nH]c2ccc(Br)cc12)c1c[nH]c2ccc(Br)cc12` [Compound 13c], for which the “Dox/Pa: concentration required to restore doxycycline activity (combination MIC)” value is reported as 13.6 µM.
For the compound `O=C(NCCCNCCCCCCCCNCCCNC(=O)c1c[nH]c2ccc(Br)cc12)c1c[nH]c2ccc(Br)cc12` [Compound 13d], the “Dox/Pa: concentration required to restore doxycycline activity (combination MIC)” value came out at 13.4 µM.

A further series relates to A. baumannii ATCC 19606. Nature of the series: MIC, broth microdilution (CO-ADD), A. baumannii. The class given is cell-based, Acinetobacter baumannii. Conditions: Acinetobacter baumannii, ATCC19606, top dose 32 µg/mL.
Turning to `O=C(NCCCNCCCCCCCNCCCNC(=O)c1c[nH]c2ccc(Br)cc12)c1c[nH]c2ccc(Br)cc12` [Compound 13c], the MIC is above 35 µM.
Turning to `O=C(NCCCNCCCCCCCCNCCCNC(=O)c1c[nH]c2ccc(Br)cc12)c1c[nH]c2ccc(Br)cc12` [Compound 13d], the MIC is at most 0.27 µM.

Another series deals with P. aeruginosa ATCC 27853. Description: MIC, broth dilution, P. aeruginosa. The format is cell-based, Pseudomonas aeruginosa. The note with it: Pseudomonas aeruginosa, ATCC27853; P. aeruginosa ATCC 27853, 18 h; read-out: MIC Pa.
On to `O=C(NCCCNCCCCCCCNCCCNC(=O)c1c[nH]c2ccc(Br)cc12)c1c[nH]c2ccc(Br)cc12` [Compound 13c], for which the MIC was 220 µM (≈ 151 µg/mL).
On the same count and under the same terms, as for `O=C(NCCCNCCCCCCCCNCCCNC(=O)c1c[nH]c2ccc(Br)cc12)c1c[nH]c2ccc(Br)cc12` [Compound 13d], the figure is 107 µM (≈ 75.2 µg/mL).
